Measurements published in ChEMBL document CHEMBL1201862, “PubChem BioAssay data set” (2004).
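Growth conditions: 96-well plates. Treatment: test compound, 48 hours, 5 concentrations. Analysis: linear interpolation between bracketing concentrations; unreached endpoints set to highest concentration. GI50: concentration for 50% inhibition of growth.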 Calls of active or inactive are those of the source. Rule as the data show it: active = GI50 up to about 1.1 µM and inactive = higher.

Tests used:
Test in all cases: growth of human tumour cells (NCI), 48 h
COLO 205 = system: COLO 205
HT-29 = system: HT-29
A549 = system: A549
786-0 = system: 786-0
MDA-N = system: MDA-N
OVCAR-8 = system: OVCAR-8
SF-268 = system: SF-268
PC-3 = system: PC-3
IGROV-1 = system: IGROV-1
Hs-578T = system: Hs-578T
HOP-62 = system: HOP-62
SR = system: SR
SW-620 = system: SW-620
MDA-MB-231 = system: MDA-MB-231
HOP-92 = system: HOP-92
OVCAR-4 = system: OVCAR-4
CAKI-1 = system: CAKI-1
U-251 = system: U-251
SK-MEL-2 = system: SK-MEL-2

SMILES	GI50 (COLO 205)	GI50 (HT-29)	GI50 (A549)	GI50 (786-0)	GI50 (MDA-N)	GI50 (OVCAR-8)	GI50 (SF-268)	GI50 (PC-3)	GI50 (IGROV-1)	GI50 (Hs-578T)	GI50 (HOP-62)	GI50 (SR)	GI50 (SW-620)	GI50 (MDA-MB-231)	GI50 (HOP-92)	GI50 (OVCAR-4)	GI50 (CAKI-1)	GI50 (U-251)	GI50 (SK-MEL-2)
CCOC(=O)c1nc2ccc(C(F)(F)F)cc2nc1Nc1cc(OC)c(OC)c(OC)c1	> 100 µM (inactive)	> 100 µM (inactive)	> 100 µM (inactive)	> 100 µM (inactive)	> 100 µM (inactive)	> 100 µM (inactive)	> 100 µM (inactive)	> 100 µM (inactive)	> 100 µM (inactive)	> 100 µM (inactive)	> 100 µM (inactive)	> 100 µM (inactive)	> 100 µM (inactive)	> 100 µM (inactive)	> 100 µM (inactive)				
O=c1c2cc([N+](=O)[O-])ccc2[nH]n1Cc1ccccn1	> 100 µM (inactive)	> 100 µM (inactive)	> 100 µM (inactive)	> 100 µM (inactive)	> 100 µM (inactive)	> 100 µM (inactive)	> 100 µM (inactive)	> 100 µM (inactive)	> 100 µM (inactive)	> 100 µM (inactive)	> 100 µM (inactive)	> 100 µM (inactive)	> 100 µM (inactive)	> 100 µM (inactive)	> 100 µM (inactive)	> 100 µM (inactive)	> 100 µM (inactive)	> 100 µM (inactive)	
CC1(C)CC[C@]2(C)[C@@H](O)C[C@]3(C)C(=CC[C@@H]4[C@@]5(C)CC[C@H](O)C(C)(C)[C@@H]5CC[C@]43C)[C@@H]2C1	48.6 µM (inactive)	39.2 µM (inactive)	31.7 µM (inactive)	33.3 µM (inactive)	> 100 µM (inactive)	20.3 µM (inactive)	46.3 µM (inactive)	29 µM (inactive)	35.9 µM (inactive)	24.4 µM (inactive)	37 µM (inactive)		> 100 µM (inactive)	16.8 µM (inactive)	16.2 µM (inactive)	97.3 µM (inactive)	34.5 µM (inactive)	28.7 µM (inactive)	26.4 µM (inactive)
O=C(O)C/C=C/CC(=O)O	> 100 µM (inactive)	> 100 µM (inactive)	> 100 µM (inactive)	> 100 µM (inactive)	> 100 µM (inactive)	> 100 µM (inactive)	> 100 µM (inactive)	> 100 µM (inactive)	> 100 µM (inactive)	> 100 µM (inactive)	> 100 µM (inactive)	> 100 µM (inactive)	> 100 µM (inactive)	> 100 µM (inactive)		> 100 µM (inactive)	> 100 µM (inactive)	> 100 µM (inactive)	> 100 µM (inactive)
CC(=O)Nc1[nH]c(C#N)nc1C#N	> 100 µM (inactive)	> 100 µM (inactive)	> 100 µM (inactive)	> 100 µM (inactive)	> 100 µM (inactive)	> 100 µM (inactive)	> 100 µM (inactive)	> 100 µM (inactive)	> 100 µM (inactive)	> 100 µM (inactive)	> 100 µM (inactive)		> 100 µM (inactive)	> 100 µM (inactive)	> 100 µM (inactive)	> 100 µM (inactive)	> 100 µM (inactive)	> 100 µM (inactive)	> 100 µM (inactive)
CCn1c(=O)c2c3ccc(OC)cc3[nH]c2c2ccc(OC)cc21	39.4 µM (inactive)	38.3 µM (inactive)	59.7 µM (inactive)	0.0426 µM (active)	62.8 µM (inactive)	73.3 µM (inactive)	62.2 µM (inactive)	39.2 µM (inactive)	> 100 µM (inactive)	40.7 µM (inactive)	37.5 µM (inactive)	70.5 µM (inactive)	57.3 µM (inactive)	57 µM (inactive)	> 100 µM (inactive)	54.1 µM (inactive)	55.2 µM (inactive)	> 100 µM (inactive)	
C[N+](C)([O-])C12CC3CC(CC(C3)C1)C2	27 µM (inactive)	35.6 µM (inactive)	25.8 µM (inactive)	25.5 µM (inactive)	31.8 µM (inactive)	40.1 µM (inactive)	38.3 µM (inactive)	22.4 µM (inactive)	25.3 µM (inactive)	55.6 µM (inactive)	24 µM (inactive)	41.3 µM (inactive)	41.8 µM (inactive)	> 100 µM (inactive)		33.1 µM (inactive)	> 100 µM (inactive)	37.4 µM (inactive)	22.6 µM (inactive)
O=C(CC1C=CCS1(=O)=O)NCc1ccccc1 (stereo not drawn)	> 100 µM (inactive)	> 100 µM (inactive)	> 100 µM (inactive)	> 100 µM (inactive)	> 100 µM (inactive)	> 100 µM (inactive)	> 100 µM (inactive)	> 100 µM (inactive)	> 100 µM (inactive)	> 100 µM (inactive)	> 100 µM (inactive)	> 100 µM (inactive)	> 100 µM (inactive)	> 100 µM (inactive)	> 100 µM (inactive)	> 100 µM (inactive)	> 100 µM (inactive)	> 100 µM (inactive)	
COc1ccc(/C=N\NC(=O)Nc2cccc3ccccc23)cc1	> 100 µM (inactive)	8.97 µM (inactive)	45.4 µM (inactive)	11.4 µM (inactive)	2.7 µM (inactive)	> 10 µM (inactive)	17.7 µM (inactive)	20.8 µM (inactive)	17.3 µM (inactive)	6.75 µM (inactive)	11 µM (inactive)		51.6 µM (inactive)	20.5 µM (inactive)	21.4 µM (inactive)	15.6 µM (inactive)	13.7 µM (inactive)	13.9 µM (inactive)	9.14 µM (inactive)
C[C@H](CCC1=NCCN1)[C@H]1CC[C@H]2[C@@H]3CC[C@@H]4C[C@H](O)CC[C@]4(C)[C@H]3C[C@H](O)[C@]12C	10.2 µM (inactive)	10.5 µM (inactive)		16.3 µM (inactive)	14.6 µM (inactive)	15.5 µM (inactive)	7.36 µM (inactive)	4.57 µM (inactive)	7.38 µM (inactive)	11.4 µM (inactive)	15.5 µM (inactive)		19.9 µM (inactive)	14.9 µM (inactive)	12.2 µM (inactive)	15.9 µM (inactive)	20.4 µM (inactive)	8.11 µM (inactive)	13.8 µM (inactive)
COc1ccc(N2C(=O)C3c4[nH]c5ccc(C)cc5c4C4CCC(C(C)(C)C)CC4C3C2=O)cc1 (stereo not drawn)	18.4 µM (inactive)	12.7 µM (inactive)	6.9 µM (inactive)	20.4 µM (inactive)	> 10 µM (inactive)	6.21 µM (inactive)	13 µM (inactive)	24.1 µM (inactive)	38.9 µM (inactive)	3.64 µM (inactive)	13.6 µM (inactive)	11.6 µM (inactive)	5.58 µM (inactive)	35.9 µM (inactive)		3.35 µM (inactive)	10.3 µM (inactive)	3.85 µM (inactive)	
